From ChEMBL document CHEMBL5120806, “Synthesis and biological evaluation of glucagon-like peptide-1 analogs with the C-terminal helix 3 of albumin-binding domain 3” (Bioorg Med Chem, 2022) come the findings set out here.

What is called Kd is the concentration at which binding is half-saturated. Usually EC50 stands for the midpoint of the concentration-response curve.

The target in data set [1] is T1, Glucagon-like peptide 1 receptor (Homo sapiens, UniProt P43220). The data set is described as follows: Binding affinity to GLP-1 receptor (unknown origin) assessed as dissociation rate constant by surface plasmon resonance analysis. As to conditions: filed as activator. On the technique in general: Surface plasmon resonance follows binding to a sensor surface in real time, without labels.
T1 sequence (P43220 whole entry): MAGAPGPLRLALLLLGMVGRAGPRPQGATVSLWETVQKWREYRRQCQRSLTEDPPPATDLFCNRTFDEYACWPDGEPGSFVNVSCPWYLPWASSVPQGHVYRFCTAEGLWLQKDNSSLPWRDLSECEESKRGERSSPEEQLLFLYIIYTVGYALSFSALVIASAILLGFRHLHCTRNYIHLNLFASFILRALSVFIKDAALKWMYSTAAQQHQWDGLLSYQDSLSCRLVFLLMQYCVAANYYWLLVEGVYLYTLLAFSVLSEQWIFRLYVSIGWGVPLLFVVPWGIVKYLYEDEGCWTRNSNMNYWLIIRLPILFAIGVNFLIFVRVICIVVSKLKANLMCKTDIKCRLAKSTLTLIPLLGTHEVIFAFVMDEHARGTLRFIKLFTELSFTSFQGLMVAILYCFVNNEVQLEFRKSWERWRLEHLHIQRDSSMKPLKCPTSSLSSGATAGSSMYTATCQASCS

The target in data set [2] is T1, Glucagon-like peptide 1 receptor. The data set is described as follows: Binding affinity to GLP-1 receptor (unknown origin) assessed as binding rate constant by surface plasmon resonance analysis. As to conditions: filed as activator.
Data set [3] deals with Mus musculus. Briefly: Antidiabetic activity in mouse assessed as decrease in AUC (0 to 24hrs) glucose level at 30 nmol/kg, sc measured after 24 hrs. It counts as functional, organism-based.
The test system of data set [4] is Mus musculus. The data set is described as follows: Antidiabetic activity in mouse assessed as decrease in blood glucose level at 30 nmol/kg, sc measured after 24 hrs. The data set is classed as functional, organism-based.
Data set [5] has as its target T1, Glucagon-like peptide 1 receptor. The data set is described as follows: Binding affinity to GLP-1 receptor (unknown origin) assessed as equlibrium constant by surface plasmon resonance analysis.
Data set [6] has the same target. The data set is described as follows: Activation of GLP-1 receptor (unknown origin) expressed in CHO-K1 cells assessed as increase in cAMP accumulation by time-resolved fluorescence resonance energy transfer immunoassay. It counts as functional, cell-based.
A further data set deals with Albumin (Homo sapiens, UniProt P02768). Briefly: Binding affinity to albumin (unknown origin) by HPLC analysis.
Albumin, sequence (P02768 whole entry): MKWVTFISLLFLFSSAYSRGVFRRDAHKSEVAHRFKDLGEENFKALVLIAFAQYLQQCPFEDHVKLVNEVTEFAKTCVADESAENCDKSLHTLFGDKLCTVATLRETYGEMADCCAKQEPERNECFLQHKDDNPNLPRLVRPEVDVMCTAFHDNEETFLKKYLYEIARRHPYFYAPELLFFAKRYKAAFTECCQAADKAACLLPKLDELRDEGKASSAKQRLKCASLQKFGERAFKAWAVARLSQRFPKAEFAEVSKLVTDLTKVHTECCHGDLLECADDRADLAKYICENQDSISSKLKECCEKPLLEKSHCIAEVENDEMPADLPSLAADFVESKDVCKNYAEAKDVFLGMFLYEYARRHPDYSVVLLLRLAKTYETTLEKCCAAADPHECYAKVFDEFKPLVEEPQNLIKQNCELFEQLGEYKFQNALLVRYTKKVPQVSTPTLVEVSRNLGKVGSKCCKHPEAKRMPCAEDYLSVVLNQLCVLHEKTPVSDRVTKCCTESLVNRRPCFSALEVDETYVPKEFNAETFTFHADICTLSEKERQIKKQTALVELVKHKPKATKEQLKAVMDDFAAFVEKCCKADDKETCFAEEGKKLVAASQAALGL
The target of data set [7] is T2, Glucagon-like peptide 1 receptor (Rattus norvegicus) (UniProt P32301).
T2 sequence (whole entry): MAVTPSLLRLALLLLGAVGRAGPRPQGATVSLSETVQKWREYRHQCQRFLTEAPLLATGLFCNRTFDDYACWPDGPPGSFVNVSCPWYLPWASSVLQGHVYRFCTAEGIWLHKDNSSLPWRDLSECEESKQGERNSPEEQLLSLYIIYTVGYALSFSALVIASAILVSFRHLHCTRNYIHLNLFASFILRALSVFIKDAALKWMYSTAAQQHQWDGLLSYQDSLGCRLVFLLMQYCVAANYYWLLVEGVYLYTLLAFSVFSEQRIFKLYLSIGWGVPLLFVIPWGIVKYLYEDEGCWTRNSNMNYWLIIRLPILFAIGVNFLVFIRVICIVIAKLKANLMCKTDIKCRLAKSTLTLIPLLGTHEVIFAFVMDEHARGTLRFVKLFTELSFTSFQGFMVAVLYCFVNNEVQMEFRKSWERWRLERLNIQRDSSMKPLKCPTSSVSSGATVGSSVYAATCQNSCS
The data set is described as follows: Activation of GLP-1 receptor in rat INS-1 cells assessed as cAMP accumulation at 10 nmol/L time-resolved fluorescence resonance energy transfer immunoassay. As to conditions: INS1, filed as activator. It counts as functional, cell-based. On the technique in general: Cyclic AMP is a second messenger, typically raised through Gs and lowered through Gi signalling.

Data set [8] deals with Mus musculus. Briefly: Antidiabetic activity in mouse assessed as decrease in body weight at 30 nmol/kg, sc measured after 24 hrs. It counts as functional, organism-based.

Calls of active or inactive are those of the source. The calls are words filed in the database; no cut-off is given here. Where a SMILES comes first, the peptide text is derived from it. [ ]: non-standard residue; d: D form. Aun = NCCCCCCCCCCC(=O)O; AEEA = NCCOCCOCC(=O)O; Aib = CC(C)(N)C(=O)O; Aoc = NCCCCCCCC(=O)O

For the compound SEMAGLUTIDE [listing 1 of 2 here], in data set [1], the Kdiss was 3.2 10^-2/s. In addition, the Ka in data set [2] was 7.26 10^4/Ms. Further, the result in the data set with Mus musculus [3] and in the data set with Mus musculus [4] was Active.
For the compound “H-[Aib]EGTFTSDVSSYLEGQAAKEFIAWLVKG[AEEA]GVKALIDEILAA-NH2”, the Kd in data set [5] was found to be 994 nM. Also, in data set [1], the Kdiss was 1.94 10^-2/s. For the same compound, in data set [6], the EC50 was 0.132 nM. In addition, the Activity on Albumin was 75.4%. In addition, the Ka in [2] is 1.95 10^4/Ms. For the same compound, the result with Mus musculus [4] was Active.
In turn, SEMAGLUTIDE [listing 2 of 2 here] showed an Activity on Albumin of over 99%.
In the case of “H-[Aib]EGTFTSDVSSYLEGQAAKEFIAWLVKG[Aun]GVKALIDEILAA-NH2”, the result (in data set [7]; in the data set with Mus musculus [8]; in the data set with Mus musculus [3]; in the data set with Mus musculus [4]) was Active. Also, the Kd in data set [5] was determined as 1460 nM. For the same compound, in data set [1], the Kdiss was 1.1 10^-2/s. The 50% effective concentration (EC50) in data set [6] turned out to be 0.209 nM. At Albumin, this compound came in with an Activity of 89.2%. For the same compound, the Ka in data set [2] is 7.53 10^3(1/Ms).
Take “H-[Aib]EGTFTSDVSSYLEGQAAKEFIAWLVKG[Aoc]GVKALIDEILAA-NH2”: the Kd in data set [5] turned out to be 700 nM. In data set [1], the Kdiss is 1.41 10^-2/s. For the same compound, the EC50 in data set [6] came out at 0.204 nM. In addition, on Albumin, the Activity was 77.4%. In addition, the Ka in [2] was 2.01 10^4/Ms. The result with Mus musculus [3] and with Mus musculus [4] was Active.
For the compound `CC[C@H](C)[C@H](NC(=O)[C@H](Cc1ccccc1)NC(=O)[C@H](CCC(=O)O)NC(=O)[C@H](CCCCN)NC(=O)[C@H](C)NC(=O)[C@H](C)NC(=O)[C@H](CCC(N)=O)NC(=O)CNC(=O)[C@H](CCC(=O)O)NC(=O)[C@H](CC(C)C)NC(=O)[C@H](Cc1ccc(O)cc1)NC(=O)[C@H](CO)NC(=O)[C@H](CO)NC(=O)[C@@H](NC(=O)[C@H](CC(=O)O)NC(=O)[C@H](CO)NC(=O)[C@@H](NC(=O)[C@H](Cc1ccccc1)NC(=O)[C@@H](NC(=O)CNC(=O)[C@H](CCC(=O)O)NC(=O)C(C)(C)N)[C@@H](C)O)[C@@H](C)O)C(C)C)C(=O)N[C@@H](C)C(=O)N[C@@H](Cc1c[nH]c2ccccc12)C(=O)N[C@@H](CC(C)C)C(=O)N[C@H](C(=O)N[C@@H](CCCCN)C(=O)NCC(=O)NCC(=O)N[C@H](C(=O)N[C@@H](CCCCN)C(=O)N[C@@H](C)C(=O)N[C@@H](CC(C)C)C(=O)N[C@H](C(=O)N[C@@H](CC(=O)O)C(=O)N[C@@H](CCC(=O)O)C(=O)N[C@H](C(=O)N[C@@H](CC(C)C)C(=O)N[C@@H](C)C(=O)N[C@@H](C)C(N)=O)[C@@H](C)CC)[C@@H](C)CC)C(C)C)C(C)C` (H-[Aib]EGTFTSDVSSYLEGQAAKEFIAWLVKGGVKALIDEILAA-NH2), the result (in data set [7]; in the data set on Mus musculus [8]; in the data set with Mus musculus [3]; in the data set with Mus musculus [4]) was Active. The Kd in [5] stood at 3750 nM. The Kdiss in [1] was 1.12 10^-2/s. Also, the EC50 in data set [6] amounted to 0.0651 nM. On Albumin, this compound returned an Activity of 86.2%. For the same compound, in [2], the Ka is 2.99 10^3(1/Ms).
For “H-[Aib]EGTFTSDVSSYLEGQAAKEFIAWLVKG[Aoc][AEEA]GVKALIDEILAA-NH2”, the dissociation constant (Kd) in data set [5] worked out at 532 nM. Also, the Kdiss in [1] is 1.65 10^-2/s. Also, the EC50 in data set [6] was 0.135 nM. Besides, the Activity on Albumin is 66.5%. In data set [2], the Ka was 3.11 10^4/Ms. The result with Mus musculus [3] and in the data set with Mus musculus [4] was Active.
With “H-[Aib]EGTFTSDVSSYLEGQAAKEFIAWLVKG[Aun][AEEA]GVKALIDEILAA-NH2”, the result with Mus musculus [8], in the data set with Mus musculus [3] and with Mus musculus [4] was Active. In addition, in data set [5], the Kd came to 1490 nM. Further, the Kdiss in [1] was 1.97 10^-2/s. Also, the EC50 in data set [6] was 0.158 nM. The compound further returned an Activity on Albumin of 76.4%. Further, the Ka in data set [2] was 1.32 10^4/Ms.
Take “H-[Aib]EGTFTSDVSSYLEGQAAKEFIAWLVKG[AEEA][AEEA]GVKALIDEILAA-NH2”: in data set [5], the Kd came out at 912 nM. Besides, in data set [1], the Kdiss is 3.25 10^-2/s. Moreover, the EC50 in [6] came out at 0.17 nM. Besides, the Activity on Albumin is 65.6%. Further, the Ka in data set [2] is 3.57 10^4/Ms. Besides, the outcome with Mus musculus [3] and in the data set with Mus musculus [4] was Active.
